Results as given in ChEMBL document CHEMBL4813997, “Discovery of 3-aryl substituted benzoxaboroles as broad-spectrum inhibitors of serine- and metallo-β-lactamases” (Bioorg Med Chem Lett, 2021).
In brackets after ≈: the same amount, converted by molar mass.

How the values were obtained:
[1] = Inhibition of bacterial Beta-lactamase KPC-2 (29 - 289) (unknown origin) expressed in Escherichia coli Transetta (DE3); design: species or system Bacteria
[2] = Inhibition of bacterial Beta-lactamase AmpC (20 - 377) (unknown origin) expressed in Escherichia coli Transetta (DE3); design: species or system Bacteria
[3] = Inhibition of bacterial Beta-lactamase SFH-1 (3 - 234) expressed in Escherichia coli Transetta (DE3); design: species or system Bacteria
[4] = Inhibition of bacterial Beta-lactamase OXA-48 (1 - 265) (unknown origin) expressed in Escherichia coli Transetta (DE3); design: species or system Bacteria
[5] = Inhibition of bacterial New Delhi metallo-beta-lactamase 1 (1- 270) (unknown origin) expressed in Escherichia coli Transetta (DE3); design: species or system Bacteria
Beta-lactamase TEM = Beta-lactamase TEM (Bacteria, UniProt P62593); experiment: Inhibition of bacterial Beta-lactamase TEM-1 (24 - 286) (unknown origin) expressed in Escherichia coli Transetta (DE3)
Beta-lactamase TEM, sequence (P62593 whole entry): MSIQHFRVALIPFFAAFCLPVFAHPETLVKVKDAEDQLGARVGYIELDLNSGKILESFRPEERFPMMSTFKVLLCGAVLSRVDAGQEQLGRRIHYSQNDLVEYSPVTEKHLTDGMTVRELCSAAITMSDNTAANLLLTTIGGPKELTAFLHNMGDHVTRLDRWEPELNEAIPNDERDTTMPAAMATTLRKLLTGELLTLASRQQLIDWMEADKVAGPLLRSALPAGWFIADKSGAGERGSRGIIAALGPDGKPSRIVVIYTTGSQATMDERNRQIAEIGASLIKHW

[6] = Inhibition of bacterial Beta-lactamase VIM-1 (27 - 266) (unknown origin) expressed in Escherichia coli Transetta (DE3); design: species or system Bacteria
Klebsiella pneumoniae [7] = experiment: Potentiation of meropenem-induced antibacterial activity against AmpC/TEM-1 producing Klebsiella pneumoniae C692 assessed as MIC of meropenem at 10 uM; format: functional
Escherichia coli [8] = experiment: Potentiation of meropenem-induced antibacterial activity against KPC-2 producing Escherichia coli 11119 assessed as MIC of meropenem at 10 uM; format: functional
Klebsiella pneumoniae [9] = experiment: Potentiation of meropenem-induced antibacterial activity against AmpC/TEM-1 producing Klebsiella pneumoniae C692 assessed as MIC of meropenem at 100 uM; format: functional
Escherichia coli [10] = experiment: Potentiation of meropenem-induced antibacterial activity against KPC-2 producing Escherichia coli BAA2340 assessed as MIC of meropenem at 100 uM; format: functional
HEK-293T = experiment: Cytotoxicity against human HEK293T cells assessed as reduction in cell viability at 10 to 100 uM; format: cell-based; conditions: dose 10-100 µM
Escherichia coli [11] = experiment: Potentiation of meropenem-induced antibacterial activity against KPC-2 producing Escherichia coli 11119 assessed as MIC of meropenem at 100 uM; format: functional
Escherichia coli [12] = experiment: Potentiation of meropenem-induced antibacterial activity against KPC-2 producing Escherichia coli BAA2340 assessed as MIC of meropenem at 10 uM; format: functional
Beta-lactamase = Beta-lactamase (Klebsiella pneumoniae, UniProt Q93LQ9); experiment: Inhibition of Klebsiella pneumoniae KPC-2
Beta-lactamase, sequence (Q93LQ9 whole entry): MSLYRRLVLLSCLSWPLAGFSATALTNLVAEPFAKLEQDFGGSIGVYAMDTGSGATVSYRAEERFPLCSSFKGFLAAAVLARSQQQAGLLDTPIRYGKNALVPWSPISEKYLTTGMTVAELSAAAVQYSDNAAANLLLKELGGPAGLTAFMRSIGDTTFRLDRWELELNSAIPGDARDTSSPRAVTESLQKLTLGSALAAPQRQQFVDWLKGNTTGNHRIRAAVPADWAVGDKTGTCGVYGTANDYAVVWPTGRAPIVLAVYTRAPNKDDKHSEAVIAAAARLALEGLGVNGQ

Escherichia coli [13] = experiment: Antibacterial activity against Escherichia coli ATCC 25922; format: functional
Escherichia coli [14] = experiment: Antibacterial activity against KPC-2 producing Escherichia coli BAA2340; format: functional
Klebsiella pneumoniae [15] = experiment: Antibacterial activity against AmpC/TEM-1 producing Klebsiella pneumoniae C692; format: functional
Escherichia coli [16] = experiment: Antibacterial activity against KPC-2 producing Escherichia coli 11119; format: functional

SMILES | IC50 [1] | IC50 [2] | IC50 [3] | IC50 [4] | IC50 [5] | IC50 (Beta-lactamase TEM) | IC50 [6] | MIC (Klebsiella pneumoniae [7]) | MIC (Escherichia coli [8]) | MIC (Klebsiella pneumoniae [9]) | MIC (Escherichia coli [10]) | Activity (HEK-293T) | MIC (Escherichia coli [11]) | MIC (Escherichia coli [12]) | IC50 (Beta-lactamase) | MIC (Escherichia coli [13]) | MIC (Escherichia coli [14]) | MIC (Klebsiella pneumoniae [15]) | MIC (Escherichia coli [16])
CN(C)c1ccc(C2OB(O)c3ccccc32)cc1 (stereo unspecified) | 0.18 µM | 8.27 µM | 2.52 µM | 2.41 µM | 8.44 µM | 0.73 µM | 39.4 µM |  |  |  |  |  |  |  |  |  |  |  | 
CN(C)c1ccc(C2OB(O)c3cccc(F)c32)cc1 (stereo unspecified) | 1.91 µM | 15.1 µM | 1.83 µM | 7.48 µM | 25.6 µM | 20.7 µM | > 100 µM |  |  |  |  |  |  |  |  |  |  |  | 
OB1OC(c2c[nH]c3ccc(Cl)cc23)c2ccccc21 (stereo unspecified) | 0.2 µM | 5.66 µM | 18.6 µM | > 100 µM | > 100 µM | > 100 µM |  |  |  |  |  |  |  |  |  |  |  |  | 
OB1OC(c2cn(Cc3ccccc3)c3ccccc23)c2ccccc21 (stereo unspecified) | > 100 µM | > 100 µM | 9.6 µM | > 100 µM | 15.9 µM | > 100 µM | 10.6 µM |  |  |  |  |  |  |  |  |  |  |  | 
OB1OC(c2c[nH]c3ccc(Br)cc23)c2ccc(F)cc21 (stereo unspecified) | > 100 µM | > 100 µM | > 100 µM | > 100 µM | > 100 µM | > 100 µM | > 100 µM |  |  |  |  |  |  |  |  |  |  |  | 
OB1OC(c2c[nH]c3ccc(F)cc23)c2ccccc21 (stereo unspecified) | 0.36 µM | 7.27 µM | 6.58 µM | > 100 µM | > 100 µM | 88.8 µM | 62.5 µM |  |  |  |  |  |  |  |  |  |  |  | 
OB1OC(c2cccs2)c2ccccc21 (stereo unspecified) | 0.41 µM | 18.7 µM | 2.47 µM | 5.45 µM | 22.4 µM | 6.97 µM | 17.4 µM | > 128 µg/mL | 32 µg/mL | > 128 µg/mL | 0.5 µg/mL | Non-Toxic | 2 µg/mL | 2 µg/mL |  |  |  |  | 
CN(C)c1ccc(C2OB(O)c3cc(Cl)ccc32)cc1 (stereo unspecified) | 0.81 µM | 3.6 µM | 0.47 µM | 1.96 µM | 61.7 µM | 4.34 µM | > 100 µM |  |  |  |  |  |  |  |  |  |  |  | 
CNc1ccc(C2OB(O)c3cccc(F)c32)cc1 (stereo unspecified) | 2.41 µM | 15.3 µM | 1.15 µM | 6.49 µM | 51.4 µM | 37.9 µM | > 100 µM |  |  |  |  |  |  |  |  |  |  |  | 
OB1OC(c2c[nH]c3ccccc23)c2ccccc21 (stereo unspecified) | 2.58 µM | 3.66 µM | 8.5 µM | > 100 µM | 6.04 µM | > 100 µM | 15.2 µM |  |  |  |  |  |  |  |  |  |  |  | 
OB1OC(c2ccccc2)c2ccccc21 (stereo unspecified) | 1 µM | 29.2 µM | 3.56 µM | 8.67 µM | 89 µM | 4.46 µM | 73.8 µM |  |  |  |  |  |  |  |  |  |  |  | 
CNc1ccc(C2OB(O)c3ccccc32)cc1 (stereo unspecified) | 0.1 µM | 13.9 µM | 3.02 µM | 2.37 µM | 57.4 µM | 3.2 µM | 26.4 µM |  |  |  |  |  |  |  |  |  |  |  | 
CN(C)c1ccc(C2OB(O)c3ccc(F)cc32)cc1 (stereo unspecified) | 0.35 µM | 39.3 µM | 3.64 µM | 3.58 µM | 11.2 µM | 5.68 µM | > 100 µM |  |  |  |  |  |  |  |  |  |  |  | 
COc1ccc2c(c1)C(c1ccc(N(C)C)cc1)OB2O (stereo unspecified) | 0.18 µM | 11.4 µM | 4.23 µM | 2.93 µM | 38.4 µM | 1.54 µM | > 100 µM |  |  |  |  |  |  |  |  |  |  |  | 
N#Cc1ccc(Oc2ccc3c(c2)COB3O)cc1 [CRISABOROLE] |  |  |  |  |  |  |  |  |  |  |  |  |  |  | 0.67 µM |  |  |  | 
OB1OC(c2c[nH]c3ccc(OCc4ccccc4)cc23)c2ccccc21 (stereo unspecified) | > 100 µM | > 100 µM | > 100 µM | > 100 µM | > 100 µM | > 100 µM | > 100 µM |  |  |  |  |  |  |  |  |  |  |  | 
OB1OC(c2c[nH]c3ccc(Br)cc23)c2ccccc21 (stereo unspecified) | 9.43 µM | 25.9 µM | 14.9 µM | > 100 µM | 24 µM | > 100 µM | 13.1 µM |  |  |  |  |  |  |  |  |  |  |  | 
CN(C)c1ccc(C2OB(O)c3cc4c(cc32)OCO4)cc1 (stereo unspecified) | 0.76 µM | 5.23 µM | 2.77 µM | 6.4 µM | 16.6 µM | 1.15 µM | 51 µM |  |  |  |  |  |  |  |  |  |  |  | 
Cc1ccc2[nH]cc(C3OB(O)c4ccccc43)c2c1 (stereo unspecified) | 0.22 µM | 8.52 µM | 19.4 µM | > 100 µM | 68 µM | > 100 µM | 16.2 µM |  |  |  |  |  |  |  |  |  |  |  | 
OB1OC(c2c[nH]c3ccccc23)c2c(F)cccc21 (stereo unspecified) | 6.56 µM | 10.8 µM | 2.17 µM | > 100 µM | 25.4 µM | > 100 µM | 89.7 µM |  |  |  |  |  |  |  |  |  |  |  | 
CN(C)c1ccc(C2OB(O)c3ccc(Cl)cc32)cc1 (stereo unspecified) | 0.086 µM | 22.7 µM | 3.81 µM | 2.34 µM | 9.05 µM | 1.54 µM | > 100 µM | > 128 µg/mL | 32 µg/mL | > 128 µg/mL | 0.5 µg/mL | Non-Toxic | 8 µg/mL | 2 µg/mL |  |  |  |  | 
NC(=O)[C@@H]1CC[C@@H]2CN1C(=O)N2OS(=O)(=O)O [AVIBACTAM] | 0.0037 µM | 0.024 µM | 0.025 µM | 0.17 µM | > 100 µM |  | > 100 µM |  |  |  |  |  |  |  |  |  |  |  | 
C[C@@H](O)[C@H]1C(=O)N2C(C(=O)O)=C(S[C@@H]3CN[C@H](C(=O)N(C)C)C3)[C@H](C)[C@H]12 [MEROPENEM] |  |  |  |  |  |  |  |  |  |  |  |  |  |  |  | 0.06 µg/mL (≈ 0.156 µM) | 16 µg/mL (≈ 41.7 µM) | > 128 µg/mL | 64 µg/mL (≈ 167 µM)
OB1OC(c2ccc(N3CCCCC3)cc2)c2ccccc21 (stereo unspecified) | 0.51 µM | 32.2 µM | 5.27 µM | 3.44 µM | 11.7 µM | 33 µM | 18.4 µM |  |  |  |  |  |  |  |  |  |  |  | 
